Experimental data from patent US9447047B2 (priority 2012, dated 2016).
Entries after “also recorded” stand apart in the source; their conditions may differ. Where two headings read alike, the source gives them in different places.

Legend:
[1] = Control cell viability assays (FIG. 18)
EBOV VP30 = format: cell-based
EBOV transcription = format: cell-based
CEM cells [2] = assay: cells; conditions: Homo sapiens, CCRF-CEM
EBOV-eGFP = format: cell-based
[3] = system: Tat-induced HIV transcription in 293T cells; assay: Tat-induced HIV transcription in 293T cells transfected with HIV-1 LTR reporter and Tat vectors; format: cell-based
HIV-1 = assay: Inhibition of HIV-1 replication; format: cell-based
[4] = system: Tat-driven nuclear localization of PP1α; format: cell-based
[5] = system: HIV-1 transcription in CEM-GFP cells; assay: Tat-dependent HIV-1 transcription LTR-GFP reporter assay in CEM-GFP cells infected with Ad-Tat; format: cell-based
[6] = system: interaction of Tat with PP1α; format: cell-based; conditions: 10 μM, 293T cells
PP1α = PP1α (Homo sapiens, UniProt P62136); assay: Dephosphorylation of generic KT(pT)IRR peptide by recombinant PP1α (malachite green); format: biochemical
[7] = biological target: PP1 association with NIPP1, PNUTS and Tat (Homo sapiens, UniProt P62136); format: cell-based
293T cells = assay: Global cellular proteome of 293T cells by LC-MS-MS; conditions: 10 μM for 18 h
CEM cells [8] = system: CEM cells
[9] = read-out: Toxicity in CEM cells, IC50
[10] = Human immunodeficiency virus 1; read-out: 50% Inhibition of HIV-1 replication
[11] = Human immunodeficiency virus 1, CEM-GFP, 48 h, read-out: Inhibition of HIV-1 Transcription in CEM-GFP cells (IC50, μM)
[12] = read-out: Toxicity in CEM cells, (IC50, μM)

Chain of PP1 association with NIPP1, PNUTS and Tat (P62136 2-330 limits assumed): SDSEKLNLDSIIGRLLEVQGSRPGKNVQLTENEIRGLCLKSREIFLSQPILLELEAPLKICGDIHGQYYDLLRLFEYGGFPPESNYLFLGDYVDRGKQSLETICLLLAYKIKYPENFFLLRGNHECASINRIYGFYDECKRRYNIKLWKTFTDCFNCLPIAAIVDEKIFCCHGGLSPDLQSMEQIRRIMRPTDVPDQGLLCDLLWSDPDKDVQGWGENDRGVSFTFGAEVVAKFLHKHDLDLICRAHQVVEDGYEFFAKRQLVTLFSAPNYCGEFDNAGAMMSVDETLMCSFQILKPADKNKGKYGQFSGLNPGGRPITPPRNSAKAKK
Chain of PP1α (P62136 whole entry): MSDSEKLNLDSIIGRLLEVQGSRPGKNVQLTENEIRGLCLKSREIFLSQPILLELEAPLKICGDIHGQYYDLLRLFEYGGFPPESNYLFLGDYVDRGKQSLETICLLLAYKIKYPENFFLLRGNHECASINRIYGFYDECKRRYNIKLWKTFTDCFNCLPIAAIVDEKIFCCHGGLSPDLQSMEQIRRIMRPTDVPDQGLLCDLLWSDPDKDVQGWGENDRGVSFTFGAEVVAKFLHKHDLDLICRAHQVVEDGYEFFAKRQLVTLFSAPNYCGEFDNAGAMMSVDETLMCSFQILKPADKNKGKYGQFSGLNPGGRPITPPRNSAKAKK

CCNC(=O)NC(=O)C(C)OC(=O)c1c2c(nc3ccccc13)/C(=C/c1ccc(OC)c(OC)c1)CC2 (stereo not drawn) [1E7-03]
cell viability [1]: maintains the most viability
VP30 phosphorylation (EBOV VP30): increased
increase of VP30 phosphorylation (EBOV VP30): 2.7 fold
EBOV transcription (EBOV transcription): inhibits EBOV transcription
toxicity (Vero-E6 cells): without any detectable cytotoxicity
IC50 (CEM cells [2]; [9]): > 20 µM
inhibition of EBOV replication (EBOV-eGFP): completely suppressed
potency in HIV-1 transcription inhibition in 293T cells (comparison) [3]: equally potent as 1E7
HIV-1 inhibition (HIV-1; FIG. 18): potent HIV-1 inhibitor
IC50 (HIV-1; [10]): 3 µM
translocation of Tat and PP1 into the nucleus ([4]; fluorescence in nucleus and cytoplasm fractions): inhibited

CCNC(=O)NC(=O)C(C)OC(=O)c1c2c(nc3ccccc13)/C(=C\c1cccs1)CCC2 (stereo not drawn) [1E7-04]
toxicity (Vero-E6 cells): some toxicity
toxicity (cell monolayer, words) (Vero-E6 cells): visible toxicity
IC50 (CEM cells [2]; [9]): 7 µM
inhibition of EBOV replication (EBOV-eGFP): highly potent
IC50 (HIV-1; [10]): 3 µM

CC(OC(=O)c1c2c(nc3ccccc13)/C(=C/c1cccs1)CCC2)C(=O)NC1CC1 (stereo not drawn) [1E7-05]
toxicity (Vero-E6 cells): some toxicity
toxicity (cell monolayer, words) (Vero-E6 cells): visible toxicity
inhibition of EBOV replication (EBOV-eGFP): highly potent

COCCNC(=O)OC(=O)c1c2c(nc3ccccc13)/C(=C\c1ccc(O)cc1)CCC2 [1H4]
IC50 [5, 11]: 12.5 µM
IC50 ([5]; Human immunodeficiency virus 1, read-out: Inhibition Tat-induced HIV transcription in CEM cells, IC50): 10 µM
PP1α-EGFP co-precipitated with Tat [6]: reduced; also recorded: prevents the interaction
association of Tat with CDK9/cyclin T1 [6]: no effect
IC50 (CEM cells [2]; [12]): > 25 µM
IC50 (CEM cells [2]; [9]): 30 µM
effect on PP1 enzymatic activity (Vmax and Km, KT(pT)IRR peptide) (PP1α): minimal effect; also recorded: no effect
initial velocity V0 of KT(pT)IRR peptide dephosphorylation by PP1α (PP1α; 1H4 300 μM, without compound V0=1.4): 1.3 μM·min^−1
Tat association with PP1 (microcystin precipitation) [7]: reduced
interaction of PP1 with PNUTS or NIPP1 [7]: without any effect; also recorded: no effect
IC50 ([3]; Human immunodeficiency virus 1, HEK-293T, read-out: Inhibition Tat-induced HIV transcription in 293T cells, IC50): 5 µM
IC50 (HIV-1; Human immunodeficiency virus 1, read-out: 50% Inhibition of HIV-1 replication): 10 µM
effect on cellular proteome (293T cells): did not significantly change
nuclear PP1α-EGFP fluorescence ([4]; 293T cells, nuclear fraction, vs untreated or 1G3): significant decrease
nuclear localization of PP1α in the presence of Tat ([4]; HeLa cells, 10 μM, 18 hours): drastically diminished; also recorded: disrupts
cytotoxicity / toxicity in T cells (CEM cells [8]): not cytotoxic

CCC(c1nnc(SCC(=O)Nc2ncc(-c3ccc(F)cc3)s2)n1Cc1ccccc1)N(C)C (stereo not drawn) [T5251659]
IC50 [5, 11]: 10 µM
IC50 (CEM cells [2]; [12]): 6 µM

CCN(CC)S(=O)(=O)c1ccc2c(c1)nc(CCC(=O)N(C)c1ccc(C(F)(F)F)cc1)n2C [T5326526]
IC50 [5, 11]: 15 µM
IC50 (CEM cells [2]; [12]): 10 µM

CC(OC(=O)c1ccccc1SCC(=O)Nc1ccc2c(c1)OCO2)C(=O)NCCC1=CCCCC1 (stereo not drawn) [T5369370]
IC50 [5, 11]: 10 µM
IC50 (CEM cells [2]; [12]): 15 µM

O=S(=O)(Nc1ccc(S(=O)(=O)N2CCC(Cc3ccccc3)CC2)cn1)c1ccccc1 [T5481237]
IC50 [5, 11]: 15 µM
IC50 (CEM cells [2]; [12]): 20 µM

O=C(CNC(=O)c1ccccc1SCC(=O)NC12CC3CC(CC(C3)C1)C2)Nc1ccc(Cl)cc1 [T5498680]
IC50 [5, 11]: 5 µM
IC50 (CEM cells [2]; [12]): 5 µM

CN(C1CCCCC1)S(=O)(=O)c1ccc(NC(=O)COc2ccccc2-c2ccccc2)cc1 [T5551920]
IC50 [5, 11]: 15 µM
IC50 (CEM cells [2]; [12]): 15 µM

C=C1[C@@H](O)[C@@H]2O[C@]3(CC[C@H](/C=C/[C@@H](C)[C@@H]4CC(C)=C[C@@]5(O[C@H](C[C@@](C)(O)C(=O)O)CC[C@H]5O)O4)O3)CC[C@H]2O[C@@H]1[C@@H](O)C[C@H](C)[C@H]1O[C@@]2(CCCCO2)CC[C@H]1C [okadaic acid, reference compound]
VP30 phosphorylation (EBOV VP30): increased
